Experimental findings from patent US20220362276A1, “Small Molecule Inhibitors of Viral Replication” (The Trustees of Princeton University, priority 2019, published 2022) are described below.

For series [1], the system named is p6/Gluc (HEVΔORF2/3[Gluc]) replicon, KernowC1p6 genotype 3. Kind of series: Dose titration against p6/Gluc replicon in Huh7 cells, Gaussia luciferase readout. The class given is cell-based, hepatitis E virus. The note with it: for inhibition of p6/Gluc (HEV) replication, in words: Huh7 cells, supernatant Gluc. How it is done: Gaussia luciferase assays.
Statistics—calculation of IC50. Half maximal inhibitory concentrations were calculated by graphing dose-titration data as nonlinear curve fits with three parameters using GraphPad Prism (v8.1.2).
In general terms: Replicon systems follow genome replication, usually without infectious particles.

A further series deals with Huh7 cells. Kind of series: ATP-based cell viability assay (CellTiterGlo). Particulars: ATP live-cell viability assay. How it is done: Measurement of Cytotoxicity by CellTiterGlo Assay. […] Readout was performed using a Berthold luminometer.
On the technique in general: ATP-based viability assays read luminescence as a measure of living cells.

Series [2] concerns translation of T7-tagBFP-Gluc. Kind of series: Translation inhibition assay (T7-tagBFP-Gluc RNA in Huh7 cells). It is filed as cell-based. The note with it: 4 days. An excerpt:
Generation of T7-tagBFP-Gluc. To make the T7-TagBFP-GLuc construct, SP6-TagBFP-2A-FLuc was used as a template and the primers PU-O-6099 and PU-O-6100 were designed to partially anneal immediately upstream and downstream of the SP6 promoter. The unbound portions of PU-O-6099 and PU-O-6100 contained the T7 promoter sequence. […] Next, PCR amplification of the T7-TagBFP-2A backbone was completed using the Q5® High-Fidelity DNA Polymerase and PU-O-6101 and PU-O-6102 as the primers. […] The Gluc insert was then ligated to the T7-TagBFP-2A backbone using the In-Fusion® HD Cloning Kit.
Translation Inhibition Assay. Huh7 cells were seeded at 6,250 cells per well in 96-well format. The cells were then transfected with 50 ng T7-TagBFP-Gluc in vitro transcribed RNA per well. Five hours post-transfection, transfection medium was changed to medium containing isocotoin, ribavirin, cycloheximide, or roclagamide at 6 or 7 different concentrations. DMSO concentration was kept constant in all the wells at 0.125%. For each drug dose, triplicate wells were tested. On day four post-transfection, a luciferase assay was performed on supernatant media to measure Gluc expression.

Entries after “also recorded” stand apart in the source; their conditions may differ.

Turning to `CCNC(=O)c1noc(-c2cc(C(C)C)c(O)cc2O)c1-c1ccc(CN2CCOCC2)cc1` [AUY-922, 5-(2,4-dihydroxy-5-propan-2-ylphenyl)-N-ethyl-4-[4-(morpholin-4-ylmethyl)phenyl]-1,2-oxazole-3-carboxamide, reference compound], the “inhibition of p6/Gluc (HEV) replication, in words” value (“inhibition of p6/Gluc” below) in series [1] is recorded as “inhibited HEV replication; also recorded: potent inhibitors; also recorded: most potent analogs”. Turning to `C[C@H]1O[C@@H](O[C@H]2[C@@H](O)C[C@H](O[C@H]3[C@@H](O)C[C@H](O[C@H]4CC[C@@]5(C)[C@H](CC[C@@H]6[C@@H]5CC[C@]5(C)[C@@H](C7=CC(=O)OC7)[C@@H](O)C[C@]65O)C4)O[C@@H]3C)O[C@@H]2C)C[C@H](O)[C@@H]1O` [gitoxin], the “cytotoxicity / inhibition of cell growth, in words” value (shortened to “cytotoxicity / inhibition”) in the series with Huh7 cells was “high cytotoxicity”. For the same compound, the “inhibition of p6/Gluc” value in series [1] is listed as “dose-dependent inhibition”. For `COc1ccc(-c2c(C)noc2-c2ccc(O)cc2O)cc1` [IBS672, 4-[4-(4-methoxyphenyl)-3-methyl-1,2-oxazol-5-yl]benzene-1,3-diol], the “fold greater decrease in RLU than isocotoin” value in series [1] (1.5625 μM, second round of SAR) is “approximately 40 fold”. Take `C=CCNC1=C2C[C@@H](C)C[C@H](OC)[C@H](O)[C@@H](C)/C=C(\C)[C@H](OC(N)=O)[C@@H](OC)/C=C\C=C(/C)C(=O)NC(=CC1=O)C2=O` [17-AAG, [(4E,6Z,8S,9S,10E,12S,13R,14S,16R)-13-hydroxy-8,14-dimethoxy-4,10,12,16-tetramethyl-3,20,22-trioxo-19-(prop-2-enylamino)-2-azabicyclo[16.3.1]docosa-1(21),4,6,10,18-pentaen-9-yl] carbamate, reference compound]: the “cytotoxicity / inhibition” value in the series with Huh7 cells is reported as “cytostatic properties; also recorded: inhibitors of cell growth”. The “inhibition of p6/Gluc” value in series [1] is given as “inhibited HEV replication; also recorded: potent inhibitors”. As for `O=C(c1ccc(Cl)cc1)c1ccc(O)cc1O` [IBS102, (4-chlorophenyl)-(2,4-dihydroxyphenyl)methanone], the “fold greater decrease in RLU than isocotoin” value in series [1] (25 μM dose, first round of SAR) is “approximately 10 fold”. Take `C[C@@H]1C[C@@H]([C@H](O)CC2CC(=O)NC(=O)C2)C(=O)[C@@H](C)C1` [cycloheximide, reference compound]: in series [2], the “suppression of Gluc levels” value is reported as about 10 fold. As for `CCNC(=O)c1noc(-c2cc(Cl)c(O)cc2O)c1-c1ccc(OC)cc1` [VER-50589, 5-(5-chloro-2,4-dihydroxyphenyl)-N-ethyl-4-(4-methoxyphenyl)-1,2-oxazole-3-carboxamide, reference compound], the “cytotoxicity / inhibition” value in the series on Huh7 cells is on record as “cytostatic properties; also recorded: inhibitors of cell growth”. For the same compound, in series [1], the “inhibition of p6/Gluc” value is on record as “inhibited HEV replication; also recorded: potent inhibitors; also recorded: most potent analogs”. As for `COc1ccc([C@@]23Oc4cc(OC)cc(OC)c4C2(O)[C@H](O)[C@H](C(=O)N(C)C)[C@H]3c2ccccc2)cc1` (stereo in doubt) [roclagamide, (1R,2R,3S,3aR,8bS)-1,8b-dihydroxy-6,8-dimethoxy-3a-(4-methoxyphenyl)-N,N-dimethyl-3-phenyl-2,3-dihydro-1H-cyclopenta[b][1]benzofuran-2-carboxamide, reference compound], in series [2], the “suppression of Gluc levels” value is reported as about 10 fold. With `CC(C)c1cc(-c2n[nH]c(=O)n2-c2ccc3c(ccn3C)c2)c(O)cc1O` [STA-9090, 3-(2,4-dihydroxy-5-propan-2-ylphenyl)-4-(1-methylindol-5-yl)-1H-1,2,4-triazol-5-one, reference compound], in the series with Huh7 cells, the “cytotoxicity / inhibition” value was “cytostatic properties; also recorded: inhibitors of cell growth”. Besides, the “inhibition of p6/Gluc” value in series [1] is “inhibited HEV replication; also recorded: potent inhibitors”.
